Tests used:
[1] = system: HDACs (HeLa cell nuclear extracts); experiment: HDAC enzymatic activity, Biomol Color de Lys system; type: biochemical; conditions: 1 hour, 25° C.
Summary of the method: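 HeLa nuclear extract incubated with serially diluted compound and […] artificial substrate in 50 mM Tris/Cl pH 8.0, 137 mM NaCl, 2.7 mM KCl, 1 mM MgCl2. Run 1 h at 25 °C, stopped with developer. Fluorescence read (ex 350-380, em 440-460 nm); IC50 from sigmoidal dose-response fit.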

PANC-1 = experiment: Cell proliferation assay (CellTiter-Glo); type: cell-based; conditions: Homo sapiens, Pancreas, 72 hours, 0.5% fetal bovine serum, read-out: antiproliferative activity IC50, PANC-1
Summary of the method: (§1)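 Cancer cells seeded at 5,000–10,000/well and exposed to a concentration range of compound for 72 h in 0.5% FBS. Growth inhibition read as ATP content by luciferase luminescence after 30 min lysis.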

MiaPaca1 = experiment: Cell proliferation assay (CellTiter-Glo); type: cell-based; conditions: Pancreas; 72 hours, 0.5% fetal bovine serum; read-out: antiproliferative activity IC50, MiaPaca1
Summary of the method: as §1

H460 = experiment: Cell proliferation assay (CellTiter-Glo); type: cell-based; conditions: Homo sapiens, NCI-H460; NSCLC; 72 hours, 0.5% fetal bovine serum; read-out: antiproliferative activity IC50, H460
Summary of the method: as §1

WiDr = experiment: Cell proliferation assay (CellTiter-Glo); type: cell-based; conditions: Homo sapiens, Colon, 72 hours, 0.5% fetal bovine serum, read-out: antiproliferative activity IC50, WiDr
Summary of the method: as §1

HCT116 = experiment: Cell proliferation assay (CellTiter-Glo); type: cell-based; conditions: Homo sapiens, HCT-116; Colon; 72 hours, 0.5% fetal bovine serum; read-out: antiproliferative activity IC50, HCT116
Summary of the method: as §1

Calu6 = experiment: Cell proliferation assay (CellTiter-Glo); type: cell-based; conditions: Homo sapiens, Calu-6; NSCLC; 72 hours, 0.5% fetal bovine serum; read-out: antiproliferative activity IC50, Calu6
Summary of the method: as §1

MDA-MB-231 = experiment: Cell proliferation assay (CellTiter-Glo); type: cell-based; conditions: Homo sapiens, Breast, 72 hours, 0.5% fetal bovine serum, read-out: antiproliferative activity IC50, MDA-MB-231
Summary of the method: as §1

CaPan2 = experiment: Cell proliferation assay (CellTiter-Glo); type: cell-based; conditions: Homo sapiens, Capan-2; Pancreas; 72 hours, 0.5% fetal bovine serum; read-out: antiproliferative activity IC50, CaPan2
Summary of the method: as §1

SW1990 = experiment: Cell proliferation assay (CellTiter-Glo); type: cell-based; conditions: Homo sapiens, Pancreas, 72 hours, 0.5% fetal bovine serum, read-out: antiproliferative activity IC50, SW1990
Summary of the method: as §1

CFPAC-1 = experiment: Cell proliferation assay (CellTiter-Glo); type: cell-based; conditions: Homo sapiens, Pancreas, 72 hours, 0.5% fetal bovine serum, read-out: antiproliferative activity IC50, CFPAC-1
Summary of the method: as §1

PI3Kα (p110α/p85α) = target: T1, PI3Kα (p110α/p85α) (Homo sapiens, UniProt P42336); experiment: PI3Kα ADP-Glo assay; type: biochemical; conditions: 20 μM PIP2, 10 μM ATP, 30 minutes
T1 construct: GST (N); made in house; host or cells: Baculovirus-infected Sf9 cells
Summary of the method: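 Recombinant full-length human GST-p110α/His-p85α, co-expressed in Sf9 cells, was incubated 30 min at room temperature with 20 μM PIP2 and 10 μM ATP. The buffer was 50 mM HEPES pH 7.4, 150 mM NaCl, 5 mM MgCl2, 1 mM DTT, 3 µM orthovanadate and 0.5% DMSO. ADP formed was detected by ADP-Glo luminescence.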

T1 sequence (P42336 whole entry): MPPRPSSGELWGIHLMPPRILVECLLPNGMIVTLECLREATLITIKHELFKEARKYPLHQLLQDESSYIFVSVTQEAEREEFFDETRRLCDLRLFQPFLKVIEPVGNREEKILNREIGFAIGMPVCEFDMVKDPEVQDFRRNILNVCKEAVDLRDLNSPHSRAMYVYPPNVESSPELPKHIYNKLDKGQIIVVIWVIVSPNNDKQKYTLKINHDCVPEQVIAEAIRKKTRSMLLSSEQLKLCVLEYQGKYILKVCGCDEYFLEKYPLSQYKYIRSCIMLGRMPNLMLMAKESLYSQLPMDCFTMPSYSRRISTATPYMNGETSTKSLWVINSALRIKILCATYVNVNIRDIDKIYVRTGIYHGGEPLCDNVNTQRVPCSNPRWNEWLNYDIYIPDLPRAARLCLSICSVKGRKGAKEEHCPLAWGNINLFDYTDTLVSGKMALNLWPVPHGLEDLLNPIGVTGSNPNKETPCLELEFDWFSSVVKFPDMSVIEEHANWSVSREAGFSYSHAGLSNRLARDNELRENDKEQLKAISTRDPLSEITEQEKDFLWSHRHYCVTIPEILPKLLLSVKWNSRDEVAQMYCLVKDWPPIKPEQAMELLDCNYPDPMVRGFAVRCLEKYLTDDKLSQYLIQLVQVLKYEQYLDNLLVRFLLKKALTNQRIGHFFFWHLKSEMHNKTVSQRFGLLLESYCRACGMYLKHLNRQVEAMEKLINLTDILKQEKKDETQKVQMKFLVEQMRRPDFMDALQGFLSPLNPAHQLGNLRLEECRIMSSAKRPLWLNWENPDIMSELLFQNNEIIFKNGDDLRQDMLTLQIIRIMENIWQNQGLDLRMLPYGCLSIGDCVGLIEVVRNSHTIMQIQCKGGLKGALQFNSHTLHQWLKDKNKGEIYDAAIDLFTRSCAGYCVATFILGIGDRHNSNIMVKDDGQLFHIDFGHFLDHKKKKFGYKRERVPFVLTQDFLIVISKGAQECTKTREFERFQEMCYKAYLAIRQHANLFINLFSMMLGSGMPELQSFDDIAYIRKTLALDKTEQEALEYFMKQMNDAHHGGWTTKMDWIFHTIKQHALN
T1 sequence (P27986 whole entry partner): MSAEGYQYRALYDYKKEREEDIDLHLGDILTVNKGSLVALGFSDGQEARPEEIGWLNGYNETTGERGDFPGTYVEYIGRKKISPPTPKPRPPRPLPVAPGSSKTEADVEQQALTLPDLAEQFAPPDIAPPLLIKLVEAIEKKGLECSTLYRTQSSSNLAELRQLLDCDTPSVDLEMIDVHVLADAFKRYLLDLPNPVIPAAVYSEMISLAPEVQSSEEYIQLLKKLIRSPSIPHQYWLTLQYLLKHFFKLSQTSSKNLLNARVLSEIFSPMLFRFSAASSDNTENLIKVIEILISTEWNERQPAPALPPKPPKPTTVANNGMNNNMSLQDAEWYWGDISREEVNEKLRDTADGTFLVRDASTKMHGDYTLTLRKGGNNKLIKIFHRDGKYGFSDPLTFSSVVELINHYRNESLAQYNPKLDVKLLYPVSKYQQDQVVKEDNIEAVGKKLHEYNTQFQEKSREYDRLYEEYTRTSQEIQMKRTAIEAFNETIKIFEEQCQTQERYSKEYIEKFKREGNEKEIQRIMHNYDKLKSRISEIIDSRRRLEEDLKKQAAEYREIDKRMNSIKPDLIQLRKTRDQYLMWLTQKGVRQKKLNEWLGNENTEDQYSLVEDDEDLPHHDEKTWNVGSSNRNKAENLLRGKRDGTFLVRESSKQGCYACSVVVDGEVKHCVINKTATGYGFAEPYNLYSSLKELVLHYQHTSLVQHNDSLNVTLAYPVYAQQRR

SMILES	IC50 [1] [nM]	IC50 (PANC-1) [nM]	IC50 (MiaPaca1) [nM]	IC50 (H460) [nM]	IC50 (WiDr) [nM]	IC50 (HCT116) [nM]	IC50 (Calu6) [nM]	IC50 (MDA-MB-231) [nM]	IC50 (CaPan2) [nM]	IC50 (SW1990) [nM]	IC50 (CFPAC-1) [nM]	IC50 (PI3Kα (p110α/p85α)) [nM]
CN(Cc1cc2nc(-c3cccc4[nH]ncc34)nc(N3CCOCC3)c2s1)c1ncc(C(=O)NO)cn1 [Compound 54, 2-(((2-(1H-indazol-4-yl)-4-morpholinothieno[3,2-d]pyrimidin-6-yl)methyl)(methyl)amino)-N-hydroxypyrimidine-5-carboxamide]	< 100	10 to 100	10 to 100	100 to 1000	10 to 100	< 10	10 to 100	10 to 100	10 to 100	10 to 100	100 to 1000	< 100
CNc1ccc(-c2nc(N3CCOCC3)c3sc(CN(C)c4ncc(C(=O)NO)cn4)cc3n2)cn1 [Compound 111, N-Hydroxy-2-(methyl((2-(6-(methylamino)pyridin-3-yl)-4-morpholinothieno[3,2-d]pyrimidin-6-yl)methyl)amino)pyrimidine-5-carboxamide]	< 100	10 to 100	< 10	10 to 100	10 to 100	< 10	10 to 100	100 to 1000	10 to 100	< 10	10 to 100	< 100
CN(Cc1cc2nc(-c3ccc(N)cc3)nc(N3CCOCC3)c2s1)c1ncc(C(=O)NO)cn1 [Compound 150, 2-(((2-(4-aminophenyl)-4-morpholinothieno[3,2-d]pyrimidin-6-yl)methyl)(methyl)amino)-N-hydroxypyrimidine-5-carboxamide]	< 100	10 to 100	< 10	10 to 100	10 to 100	< 10	< 10	< 10	< 10	< 10	10 to 100	< 100

Source: US20130102595A1 (Curis, Inc., priority 2011, published 2013)
